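Exposure lasted 48 hours, with cells grown in 96-well plates and compounds tested at five concentrations. GI50 marks 50% less growth. At the TGI there is no net growth.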
What was measured:
Assay in all cases: DTP human tumour cell line panel, 48 h
786-0 renal = system: 786-0 renal
A498 renal = system: A498 renal
A549 NSCLC = system: A549 NSCLC
ACHN renal = system: ACHN renal
BT-549 breast = system: BT-549 breast
CAKI-1 renal = system: CAKI-1 renal
CCRF-CEM leukemia = system: CCRF-CEM leukemia
COLO 205 colon = system: COLO 205 colon
DU-145 prostate = system: DU-145 prostate
EKVX NSCLC = system: EKVX NSCLC
HCC-2998 colon = system: HCC-2998 colon
HCT-116 colon = system: HCT-116 colon
HCT-15 colon = system: HCT-15 colon
HL-60(TB) leukemia = system: HL-60(TB) leukemia
HOP-62 NSCLC = system: HOP-62 NSCLC
HOP-92 NSCLC = system: HOP-92 NSCLC
HS 578T breast = system: HS 578T breast
HT29 colon = system: HT29 colon
IGROV1 ovarian = system: IGROV1 ovarian
K-562 leukemia = system: K-562 leukemia
KM12 colon = system: KM12 colon
LOX IMVI melanoma = system: LOX IMVI melanoma
M14 melanoma = system: M14 melanoma
MALME-3M melanoma = system: MALME-3M melanoma
MCF7 breast = system: MCF7 breast
MDA-MB-231 breast = system: MDA-MB-231 breast
MDA-MB-435 = system: MDA-MB-435
MOLT-4 leukemia = system: MOLT-4 leukemia
NCI-H226 lung = system: NCI-H226 lung
NCI-H23 lung = system: NCI-H23 lung
NCI-H460 lung = system: NCI-H460 lung
NCI-H522 lung = system: NCI-H522 lung
NCI/ADR-RES ovarian = system: NCI/ADR-RES ovarian
OVCAR-3 ovarian = system: OVCAR-3 ovarian
OVCAR-4 ovarian = system: OVCAR-4 ovarian
OVCAR-5 ovarian = system: OVCAR-5 ovarian
OVCAR-8 ovarian = system: OVCAR-8 ovarian
PC-3 prostate = system: PC-3 prostate
RPMI-8226 leukemia = system: RPMI-8226 leukemia
RXF 393 renal = system: RXF 393 renal
SF-268 CNS = system: SF-268 CNS
SF-295 CNS = system: SF-295 CNS
SF-539 CNS = system: SF-539 CNS
SK-MEL-2 melanoma = system: SK-MEL-2 melanoma
SK-MEL-28 melanoma = system: SK-MEL-28 melanoma
SK-MEL-5 melanoma = system: SK-MEL-5 melanoma
SK-OV-3 ovarian = system: SK-OV-3 ovarian
SN12C renal = system: SN12C renal
SNB-19 CNS = system: SNB-19 CNS
SNB-75 CNS = system: SNB-75 CNS
SR leukemia = system: SR leukemia
SW-620 colon = system: SW-620 colon
T-47D breast = system: T-47D breast
TK-10 renal = system: TK-10 renal
U251 CNS = system: U251 CNS
UACC-257 melanoma = system: UACC-257 melanoma
UACC-62 melanoma = system: UACC-62 melanoma
UO-31 renal = system: UO-31 renal

With `O=C(Nc1cccc([N+](=O)[O-])c1)c1ccc2ccccc2c1O` the GI50 (786-0 renal) was 4.46 µM, the TGI (786-0 renal) was over 100 µM and the GI50 (A498 renal) was 3.27 µM. For the same molecule, the TGI (A498 renal) was over 66.7 µM, the GI50 (A549 NSCLC) was 6.87 µM and the TGI (A549 NSCLC) was over 100 µM. For the same molecule, the GI50 (ACHN renal) was 12.2 µM, the TGI (ACHN renal) was over 95.4 µM and the GI50 (BT-549 breast) was 1.75 µM. For the same molecule, the TGI (BT-549 breast) was 5.53 µM, the GI50 (CAKI-1 renal) was 2.48 µM and the TGI (CAKI-1 renal) was over 38.4 µM. For the same molecule, the GI50 (CCRF-CEM leukemia) was 2.35 µM, the TGI (CCRF-CEM leukemia) was over 35.1 µM and the GI50 (COLO 205 colon) was 15.4 µM. For the same molecule, the TGI (COLO 205 colon) was over 57.5 µM, the GI50 (DU-145 prostate) was 7.58 µM and the TGI (DU-145 prostate) was over 100 µM. For the same molecule, the GI50 (EKVX NSCLC) was 2.9 µM, the TGI (EKVX NSCLC) was over 57.2 µM and the GI50 (HCC-2998 colon) was 5.01 µM. It also gave a TGI (HCC-2998 colon) of over 100 µM, a GI50 (HCT-116 colon) of 5.27 µM and a TGI (HCT-116 colon) of over 100 µM. For the same molecule, the GI50 (HCT-15 colon) was 9 µM, the TGI (HCT-15 colon) was over 78.3 µM and the GI50 (HL-60(TB) leukemia) was 4.71 µM. It also gave a TGI (HL-60(TB) leukemia) of over 44.5 µM, a GI50 (HOP-62 NSCLC) of 10.8 µM and a TGI (HOP-62 NSCLC) of over 100 µM. For the same molecule, the GI50 (HOP-92 NSCLC) was 1.77 µM, the TGI (HOP-92 NSCLC) was 6.71 µM and the GI50 (HS 578T breast) was 2.91 µM. It also gave a TGI (HS 578T breast) of over 28.4 µM, a GI50 (HT29 colon) of 22 µM and a TGI (HT29 colon) of over 100 µM. For the same molecule, the GI50 (IGROV1 ovarian) was 13.8 µM, the TGI (IGROV1 ovarian) was 46 µM and the GI50 (K-562 leukemia) was 2.79 µM. For the same molecule, the TGI (K-562 leukemia) was over 100 µM, the GI50 (KM12 colon) was 4.41 µM and the TGI (KM12 colon) was over 81.2 µM. For the same molecule, the GI50 (LOX IMVI melanoma) was 9.94 µM, the TGI (LOX IMVI melanoma) was over 100 µM and the GI50 (M14 melanoma) was 6.81 µM. The TGI (M14 melanoma) was over 100 µM, the GI50 (MALME-3M melanoma) was 1.58 µM and the TGI (MALME-3M melanoma) was 6.28 µM. For the same molecule, the GI50 (MCF7 breast) was 2.88 µM, the TGI (MCF7 breast) was over 43.2 µM and the GI50 (MDA-MB-231 breast) was 22.2 µM. For the same molecule, the TGI (MDA-MB-231 breast) was over 81.9 µM, the GI50 (MDA-MB-435) was 3.47 µM and the TGI (MDA-MB-435) was over 100 µM. For the same molecule, the GI50 (MOLT-4 leukemia) was 3.4 µM, the TGI (MOLT-4 leukemia) was over 46.5 µM and the GI50 (NCI-H226 lung) was 7.57 µM. For the same molecule, the TGI (NCI-H226 lung) was over 100 µM, the GI50 (NCI-H23 lung) was 3.79 µM and the TGI (NCI-H23 lung) was over 89.8 µM. The GI50 (NCI-H460 lung) was 3.69 µM, the TGI (NCI-H460 lung) was over 100 µM and the GI50 (NCI-H522 lung) was 1.89 µM. The TGI (NCI-H522 lung) was 6.96 µM, the GI50 (NCI/ADR-RES ovarian) was 5.62 µM and the TGI (NCI/ADR-RES ovarian) was over 86.5 µM. The GI50 (OVCAR-3 ovarian) was 2.61 µM, the TGI (OVCAR-3 ovarian) was 8.83 µM and the GI50 (OVCAR-4 ovarian) was 4.95 µM. For the same molecule, the TGI (OVCAR-4 ovarian) was over 100 µM, the GI50 (OVCAR-5 ovarian) was 20.6 µM and the TGI (OVCAR-5 ovarian) was over 100 µM. The GI50 (OVCAR-8 ovarian) was 9.66 µM, the TGI (OVCAR-8 ovarian) was over 100 µM and the GI50 (PC-3 prostate) was 3.87 µM. For the same molecule, the TGI (PC-3 prostate) was over 80.7 µM, the GI50 (RPMI-8226 leukemia) was 1.28 µM and the TGI (RPMI-8226 leukemia) was 5.99 µM. The GI50 (RXF 393 renal) was 3.37 µM, the TGI (RXF 393 renal) was over 35.4 µM and the GI50 (SF-268 CNS) was 7.72 µM. For the same molecule, the TGI (SF-268 CNS) was over 100 µM, the GI50 (SF-295 CNS) was 3.47 µM and the TGI (SF-295 CNS) was over 82.8 µM. The GI50 (SF-539 CNS) was 4.63 µM, the TGI (SF-539 CNS) was over 64.8 µM and the GI50 (SK-MEL-2 melanoma) was 3.18 µM. The TGI (SK-MEL-2 melanoma) was 16.1 µM, the GI50 (SK-MEL-28 melanoma) was 6.03 µM and the TGI (SK-MEL-28 melanoma) was over 100 µM. For the same molecule, the GI50 (SK-MEL-5 melanoma) was 1.75 µM, the TGI (SK-MEL-5 melanoma) was 6.41 µM and the GI50 (SK-OV-3 ovarian) was 7.05 µM. The TGI (SK-OV-3 ovarian) was over 59.9 µM, the GI50 (SN12C renal) was 12 µM and the TGI (SN12C renal) was over 93 µM. It also gave a GI50 (SNB-19 CNS) of 4.05 µM, a TGI (SNB-19 CNS) of over 85.4 µM and a GI50 (SNB-75 CNS) of 17 µM. The TGI (SNB-75 CNS) was over 100 µM, the GI50 (SR leukemia) was 3.94 µM and the TGI (SR leukemia) was over 29.1 µM. It also gave a GI50 (SW-620 colon) of 6.8 µM, a TGI (SW-620 colon) of over 100 µM and a GI50 (T-47D breast) of 2.64 µM. For the same molecule, the TGI (T-47D breast) was over 30.4 µM, the GI50 (TK-10 renal) was 4.59 µM and the TGI (TK-10 renal) was over 47.4 µM. For the same molecule, the GI50 (U251 CNS) was 4.36 µM, the TGI (U251 CNS) was over 86.8 µM and the GI50 (UACC-257 melanoma) was 2.42 µM. It also gave a TGI (UACC-257 melanoma) of 7.34 µM, a GI50 (UACC-62 melanoma) of 4.22 µM and a TGI (UACC-62 melanoma) of over 100 µM. The GI50 (UO-31 renal) was 3.35 µM and the TGI (UO-31 renal) was over 53 µM.

With `CC(=O)Nc1ccc2c(c1)C(=O)c1cccc(F)c1-2` the TGI (786-0 renal) was over 100 µM, the GI50 (A498 renal) was 31.3 µM and the TGI (A498 renal) was over 100 µM. For the same molecule, the TGI (A549 NSCLC) was over 100 µM, the TGI (ACHN renal) was over 100 µM and the TGI (BT-549 breast) was over 100 µM. For the same molecule, the TGI (CAKI-1 renal) was over 100 µM, the TGI (CCRF-CEM leukemia) was over 100 µM and the TGI (COLO 205 colon) was over 100 µM. The TGI (DU-145 prostate) was over 100 µM, the TGI (EKVX NSCLC) was over 100 µM and the GI50 (HCC-2998 colon) was over 100 µM. The TGI (HCC-2998 colon) was over 100 µM, the TGI (HCT-116 colon) was over 81.7 µM and the TGI (HCT-15 colon) was over 80.1 µM. It also gave a TGI (HL-60(TB) leukemia) of over 100 µM, a TGI (HOP-62 NSCLC) of over 100 µM and a TGI (HOP-92 NSCLC) of 97.7 µM. It also gave a TGI (HS 578T breast) of over 100 µM, a TGI (HT29 colon) of over 100 µM and a TGI (IGROV1 ovarian) of over 100 µM. The TGI (K-562 leukemia) was over 100 µM, the TGI (KM12 colon) was over 35 µM and the TGI (LOX IMVI melanoma) was over 100 µM. It also gave a TGI (M14 melanoma) of over 100 µM, a TGI (MALME-3M melanoma) of over 100 µM and a TGI (MCF7 breast) of over 63.9 µM. The TGI (MDA-MB-231 breast) was over 100 µM, the TGI (MDA-MB-435) was over 100 µM and the TGI (MOLT-4 leukemia) was over 100 µM. It also gave a TGI (NCI-H226 lung) of over 100 µM, a TGI (NCI-H23 lung) of over 100 µM and a TGI (NCI-H460 lung) of over 100 µM. The TGI (NCI-H522 lung) was over 100 µM, the TGI (NCI/ADR-RES ovarian) was over 100 µM and the TGI (OVCAR-3 ovarian) was over 100 µM. For the same molecule, the TGI (OVCAR-4 ovarian) was over 100 µM, the TGI (OVCAR-5 ovarian) was over 100 µM and the TGI (OVCAR-8 ovarian) was over 100 µM. For the same molecule, the TGI (PC-3 prostate) was over 100 µM, the TGI (RPMI-8226 leukemia) was over 100 µM and the TGI (RXF 393 renal) was over 91.2 µM. The TGI (SF-268 CNS) was over 100 µM, the TGI (SF-295 CNS) was over 100 µM and the TGI (SF-539 CNS) was over 100 µM. The TGI (SK-MEL-2 melanoma) was over 100 µM, the TGI (SK-MEL-28 melanoma) was over 100 µM and the TGI (SK-MEL-5 melanoma) was over 100 µM. The TGI (SK-OV-3 ovarian) was over 100 µM, the TGI (SN12C renal) was over 100 µM and the TGI (SNB-19 CNS) was over 100 µM. It also gave a TGI (SNB-75 CNS) of over 100 µM, a TGI (SR leukemia) of over 71.4 µM and a TGI (SW-620 colon) of over 100 µM. The TGI (T-47D breast) was over 100 µM, the TGI (TK-10 renal) was over 100 µM and the TGI (U251 CNS) was over 100 µM. For the same molecule, the TGI (UACC-257 melanoma) was over 100 µM, the TGI (UACC-62 melanoma) was over 100 µM and the TGI (UO-31 renal) was over 100 µM.
